Laboratory results as given in publication PMC5548612 (Drug and alcohol dependence, 2017).
pKi: −log10 of the molar value.

What was measured:
Experiment in all cases: competitive radioligand binding
5-HT2C receptor = target: T1, 5-HT2C receptor (Homo sapiens, UniProt P28335)
T1 sequence (P28335 33-458): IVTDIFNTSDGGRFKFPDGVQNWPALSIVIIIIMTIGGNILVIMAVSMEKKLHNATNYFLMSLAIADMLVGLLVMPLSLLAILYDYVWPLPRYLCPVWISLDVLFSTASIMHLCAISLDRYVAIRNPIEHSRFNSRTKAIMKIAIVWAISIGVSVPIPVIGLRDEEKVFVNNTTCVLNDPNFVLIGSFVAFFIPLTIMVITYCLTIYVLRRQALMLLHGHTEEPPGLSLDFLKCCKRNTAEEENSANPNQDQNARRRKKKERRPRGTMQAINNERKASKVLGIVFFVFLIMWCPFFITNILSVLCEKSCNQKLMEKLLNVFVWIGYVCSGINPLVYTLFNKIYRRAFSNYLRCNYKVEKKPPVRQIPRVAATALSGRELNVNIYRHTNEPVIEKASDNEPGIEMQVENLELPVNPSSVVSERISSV

5-HT2B receptor = 5-HT2B receptor (Homo sapiens, UniProt P41595)
sigma-1 receptor = target: sigma-1 receptor

Chain of 5-HT2B receptor (P41595 whole entry): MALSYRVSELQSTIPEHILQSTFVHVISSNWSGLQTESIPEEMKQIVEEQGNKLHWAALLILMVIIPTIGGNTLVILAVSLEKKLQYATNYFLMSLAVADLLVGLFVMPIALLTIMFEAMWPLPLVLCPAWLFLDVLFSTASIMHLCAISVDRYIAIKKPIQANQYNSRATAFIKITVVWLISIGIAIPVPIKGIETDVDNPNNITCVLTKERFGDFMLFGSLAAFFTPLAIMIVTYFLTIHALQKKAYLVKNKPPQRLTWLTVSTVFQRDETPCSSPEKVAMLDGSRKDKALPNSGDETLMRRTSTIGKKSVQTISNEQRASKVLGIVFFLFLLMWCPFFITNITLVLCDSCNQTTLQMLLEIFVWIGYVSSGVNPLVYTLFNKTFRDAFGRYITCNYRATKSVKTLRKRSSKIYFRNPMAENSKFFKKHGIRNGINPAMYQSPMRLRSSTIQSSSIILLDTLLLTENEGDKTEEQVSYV

CN[C@@H](C)C(=O)c1ccc(C)cc1 [S-MEPH, S-mephedrone]
pKi (5-HT2C receptor): 5.41
pKi (5-HT2B receptor): 6.07
pKi (sigma-1 receptor): 5.82
